Data: PubChem BioAssay (NCI)
Values joined by “and” are separate entries in the source; they are usually repeats but may differ in a detail not shown here. Equal values may be shown once.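 Tested at 5 concentrations; 48 h exposure; 96-well plates; endpoints linearly interpolated, else capped at highest concentration. GI50: concentration for 50% inhibition of growth. TGI marks complete inhibition of growth.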

Tests used:
Assay in all cases: growth of human tumour cells (NCI), 48 h
[1] = test system: EKVX NSCLC
[2] = test system: UACC-257 melanoma
[3] = test system: HS 578T breast
[4] = test system: A498 renal
[5] = test system: UACC-62 melanoma
[6] = test system: HOP-62 NSCLC
[7] = test system: ACHN renal
[8] = test system: HCC-2998 colon
[9] = test system: HL-60(TB) leukemia
[10] = test system: SW-620 colon

SMILES	TGI [1]	TGI [2]	TGI [3]	TGI [4]	TGI [5]	TGI [6]	TGI [7]	TGI [8]	TGI [9]	TGI [10]	GI50 [1]	GI50 [2]	GI50 [3]	GI50 [4]	GI50 [5]	GI50 [6]	GI50 [7]	GI50 [8]	GI50 [9]	GI50 [10]
CCC(CCC(C)C1CCC2C3CC=C4CC(OC5OC(CO)C(O)C(O)C5O)CCC4(C)C3CCC12C)C(C)C (stereo not drawn)	> 100 µM	> 100 µM	> 100 µM	> 100 µM	> 100 µM	> 100 µM	> 100 µM	> 100 µM	> 100 µM	> 100 µM										
O=C1C(=O)c2ccccc2C(O)=C1CCCc1ccc(C2CCCC2)cc1	64.7 µM	28.2 µM	85.1 µM	23 µM	18.5 µM	23.6 µM	39.6 µM	8.34 µM	6.92 µM	17.1 µM	11.7 µM	3.91 µM	20.6 µM	7.24 µM	3.73 µM	8.04 µM	6.08 µM	2.99 µM	2.9 µM	4.87 µM
CSc1ccc2c(c1)N(CCC1CCCCN1C)c1ccccc1S2 (stereo not drawn)	23.5 µM and 22.7 µM	11.6 µM and 6.3 µM	28.1 µM and 13.2 µM	22.2 µM and 28.7 µM	13.6 µM and 7.13 µM	24 µM and 25.9 µM	15.2 µM and 13.5 µM	11.5 µM and 14.1 µM	30.3 µM and 9.22 µM	24.6 µM and 7.23 µM	7.93 µM and 8.06 µM	3.08 µM and 2.14 µM	6.89 µM and 3.01 µM	4.99 µM and 13.2 µM	3.16 µM and 3.05 µM	9.08 µM and 9.59 µM	4.39 µM and 3.75 µM	3.12 µM and 4.54 µM	13.4 µM and 3.12 µM	10.8 µM and 2.52 µM
CCOc1ccc2c(C)cc(=O)oc2c1	> 100 µM	> 100 µM	> 100 µM	> 100 µM	> 100 µM	> 100 µM	> 100 µM	> 100 µM	> 100 µM	> 100 µM										
COC(C(=O)C(O)C(C)O)C1Cc2cc3cc(OC4CC(OC5CC(O)C(O)C(C)O5)C(O)C(C)O4)c(C)c(O)c3c(O)c2C(=O)C1OC1CC(OC2CC(O)C(OC3CC(C)(O)C(O)C(C)O3)C(C)O2)C(O)C(C)O1 (stereo not drawn)		59.8 ng/mL and 27 ng/mL	134 ng/mL				112000 ng/mL and > 150000 ng/mL		188 ng/mL		18.8 ng/mL and 0.265 ng/mL	12.2 ng/mL and 1.15 ng/mL	16.4 ng/mL	11.2 ng/mL and 0.0278 ng/mL	11.2 ng/mL and 0.54 ng/mL	11.2 ng/mL and 0.0327 ng/mL	16.2 ng/mL and 32.6 ng/mL	11.7 ng/mL and 0.297 ng/mL	2.27 ng/mL	12.1 ng/mL and 2.36 ng/mL
Clc1nc(Cl)c2c3c(sc2n1)CCCC3	> 100 µM	> 100 µM	> 100 µM	> 100 µM	> 100 µM	> 100 µM	> 100 µM	> 100 µM	> 100 µM	> 100 µM	> 100 µM	> 26.1 µM		> 100 µM	> 100 µM	> 100 µM	5.27 µM	> 28.9 µM	> 27.4 µM	5.37 µM
CC1=C(C(=O)Nc2ccc3[nH]ncc3c2)C(c2ccc(Cl)c(Cl)c2)CC(=O)N1 (stereo not drawn)	> 25 µM	> 25 µM	> 25 µM	> 25 µM	> 25 µM	> 25 µM	> 25 µM	> 25 µM	> 25 µM	> 25 µM	> 14.6 µM	> 25 µM	4.29 µM	4.14 µM	18.1 µM	17 µM	> 25 µM	> 25 µM	> 25 µM	> 20.7 µM
NC(=S)N/N=C/c1ccc(N)cn1	> 10 µM	> 10 µM	> 10 µM	> 10 µM	> 10 µM	> 10 µM	7.65 µM	> 10 µM	5.44 µM	> 10 µM										
O=c1c2cccc(F)c2sc2c(N3CCNCC3)nc3ccccc3c12	2.99 µM	3.94 µM	3.66 µM	8.51 µM	3.16 µM	3.1 µM	2.43 µM	3.13 µM	3.44 µM	2.28 µM	1.59 µM	1.93 µM	1.62 µM	1.92 µM	1.66 µM	1.38 µM	1.19 µM	1.48 µM	1.76 µM	0.974 µM
C=C1CCC2C3(C)COC(c4c(OC)cccc4OC)OC3CCC2(C)C1C/C=C1/C(=O)OCC1O (stereo not drawn)	27.3 µM	31 µM	10.9 µM	29.6 µM	15 µM	28.7 µM	5.85 µM	11.2 µM	4.9 µM	3.23 µM	8.47 µM	13.5 µM	2.71 µM	15 µM	3.32 µM	14.8 µM	2.38 µM	4.18 µM	1.54 µM	1.71 µM
CC[C@@H](C(=O)[C@H](C)[C@H](O)[C@@H](C)[C@H]1O[C@H]([C@@H](CC)C(=O)O)CC[C@H]1C)C1O[C@]2(C=C[C@@H](O)[C@]3(CC[C@@](C)([C@H]4CC[C@](O)(CC)[C@H](C)O4)O3)O2)[C@H](C)C[C@@H]1C (stereo partly drawn)	17.5 µM	6.98 µM	18.4 µM	0.48 µM	2.28 µM	21.6 µM	40.2 µM	11.9 µM	0.506 µM	10.7 µM	0.362 µM	0.23 µM	0.239 µM	0.044 µM	1.05 µM	0.532 µM	0.77 µM	0.178 µM	0.06 µM	0.966 µM
Cc1ccc(/C=C/C(=N/N=C(N)N)c2ccccc2)cc1	28 µM	12.9 µM	5.14 µM	4.92 µM	11.9 µM	16 µM	17.4 µM	11.8 µM	4.75 µM	13.8 µM	10.1 µM	2.96 µM	1.56 µM	1.04 µM	2.65 µM	3.57 µM	4.17 µM	3.11 µM	2.28 µM	2.47 µM
COc1cc2oc(-c3ccc(O)cc3O)c(CC=C(C)C)c(=O)c2c(O)c1/C=C/C(C)C	15.3 µM	17.5 µM	7.92 µM	5.12 µM	10.4 µM	5.93 µM	8.12 µM	4.6 µM	5.59 µM	6.03 µM										
C[N+](C)(CCCCCC[N+](C)(C)CCCN1C(=O)c2cc3ccccc3cc2C1=O)CCCN1C(=O)c2cc3ccccc3cc2C1=O	> 37.5 µM	> 37.5 µM	> 37.5 µM	> 37.5 µM	> 37.5 µM	> 37.5 µM	> 37.5 µM	> 37.5 µM	> 37.5 µM	> 37.5 µM	> 37.5 µM	> 37.5 µM	> 37.5 µM	> 37.5 µM	> 37.5 µM	> 37.5 µM	> 37.5 µM	> 37.5 µM	> 37.5 µM	> 37.5 µM
C[C@]12CC[C@H]3[C@@H](CCC4=CC(=O)CC[C@@]43C)[C@@H]1CC[C@@H]2C(=O)COS(=O)(=O)c1ccc(Br)cc1	21.3 µM	31.9 µM	73.6 µM	37.2 µM	37.8 µM	46.6 µM	27.6 µM	8.74 µM	21.9 µM	> 44.5 µM										
